Measurements taken from paper PMC10584170, “Machine learning-based phenotypic imaging to characterise the targetable biology of Plasmodium falciparum male gametocytes for the development of transmission-blocking antimalarials” (PLOS Pathogens, 2023).

Columns and labels:
[1] = system: P. falciparum male gametocytes; experiment: P. falciparum Dual Gamete Formation Assay (PfDGFA), male readout (exflagellation); assay type: cell-based, Plasmodium falciparum NF54; settings: for Average inhibition male (%): average of replicates; for % inhibition male (individual replicates) R1: replicate R1; for % inhibition male (individual replicates) R3: replicate R3; for % inhibition male (individual replicates) R4: replicate R4; for Activity: hit = >50% inhibition in male or female readout in at least 3 replicates, 0 = no class assigned
Method in brief: (§1)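 Day-14 NF54 gametocytes were incubated with compound for 24 h at 37°C under 1% O2/3% CO2/96% N2. Gametogenesis was triggered with ookinete medium (0.1 μM xanthurenic acid) plus Cy3-anti-Pfs25, and exflagellation was imaged by brightfield after cooling to 4°C then 28°C. Females were imaged by Pfs25 fluorescence 24 h later at 28°C.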

[2] = system: P. falciparum female gametocytes; experiment: P. falciparum Dual Gamete Formation Assay (PfDGFA), female readout (Pfs25-positive female gametes); assay type: cell-based, Plasmodium falciparum NF54; settings: for Average inhibition female (%): average of replicates; for % inhibition female (individual replicates) R1: replicate R1; for % inhibition female (individual replicates) R3: replicate R3; for % inhibition female (individual replicates) R4: replicate R4
Method in brief: as §1

[3] = 2µM, 24h preincubation with gametocytes prior to induction of gametogenesis
[4] = 2µM, 24h preincubation, hits selected on >50% inhibition in the male readout across replicates
[5] = PfDGFA at 2µM, 24h preincubation
[6] = 2µM, 24h preincubation, hits selected on >50% inhibition in the female readout across replicates
[7] = PfDGFA at 2µM, 24h preincubation with gametocytes prior to induction of gametogenesis

SMILES	Average inhibition male (%) [1, 3] [%]	% inhibition male (individual replicates) R1 [1, 3] [%]	% inhibition male (individual replicates) R4 [1, 3] [%]	HitlevelM [1, 4]	Activity [1, 5]	Average inhibition female (%) [2, 3] [%]	% inhibition female (individual replicates) R1 [2, 3] [%]	% inhibition female (individual replicates) R3 [2, 3] [%]	% inhibition female (individual replicates) R4 [2, 3] [%]	HitlevelF [2, 6]	% inhibition male (individual replicates) R1 [1, 7] [%]	% inhibition male (individual replicates) R4 [1, 7] [%]	Average inhibition male (%) [1, 5] [%]	% inhibition female (individual replicates) R1 [2, 7] [%]	% inhibition female (individual replicates) R3 [2, 7] [%]	% inhibition female (individual replicates) R4 [2, 7] [%]	Average inhibition female (%) [2, 5] [%]	also measured
O=C(/C=C/c1c(Cl)cccc1Cl)NC1CCC(CN2CCC(c3c[nH]c4ccncc34)CC2)CC1 (stereo not shown) [TCMDC-140220]	43.5	44.6	42.9	1	0	10.7	11.8	11.4	18.8	0								% inhibition male (individual replicates) R3 [1, 3]: 17.7%
CN(C)CCCOc1ccccc1CN1CC[C@H](NC(=O)c2ccc(Cl)c(Cl)c2)C1.O=C(O)C(F)(F)F [TCMDC-140310]	6.1	4.0	4.7	0	0	10.5	10.3	9.3	14.4	0								
Cc1ccc2cc(NC(=O)CCCCCCCON3C(N)=NC(N)=NC34CCCCC4)ccc2n1.O=C(O)C(F)(F)F [TCMDC-140377]											-16.0	-32.5	-24.7	7.6	-9.1	0.33	0.7	% inhibition male (individual replicates) R3 [1, 7]: -37.7%
Cc1cc(CNCCCCCCNCc2ccc(-c3ccccc3)cc2)ccc1O [TCMDC-140412]											6.5	7.3	9.5	8.1	-7.2	4.6	1.3	
Cc1cc(CNCCCCCCCNCc2ccc(-c3ccccc3)cc2)ccc1O [TCMDC-140415]											37.4	70.9	52.6	15.4	-2.4	-10.0	3.6	% inhibition male (individual replicates) R3 [1, 7]: 30.2%
NCc1cccc(-c2ccccc2CNC2CCN(Cc3ccccc3)CC2)c1.O=C(O)C(F)(F)F [TCMDC-140467]	3.4	-0.12	18.9			24.8	22.3	3.0	28.3									% inhibition male (individual replicates) R3 [1, 3]: -13.3%; HitlevelM ([1]; 2µM, 24h preincubation, number of replicates with >50% inhibition in the male readout): 0; HitlevelF ([2]; 2µM, 24h preincubation, number of replicates with >50% inhibition in the female readout): 0
O=C(O)C(F)(F)F.c1ccc(CN2CCC(NCc3ccc(-c4cccc(CNC5CCCC5)c4)cc3)CC2)cc1 [TCMDC-140491]	4.9	9.8	-11.4	0	0	15.2	11.0	20.4	13.9	0								
